Reference: PubChem BioAssay AID1259407 (Chemical Carcinogenesis Research Information System (CCRIS), 2018)
The source made the active and inactive calls. How the calls were made is not given here.

Tested on: CCRIS mutagenicity, Ames/micronucleus/aberration tests
Test: CCRIS mutagenicity studies
[1] = Test System: AMES SALMONELLA TYPHIMURIUM, Strain/Indicator: TA98, Metabolic Activation: NONE, Method: STANDARD PLATE
[2] = Test System: AMES SALMONELLA TYPHIMURIUM, Strain/Indicator: TA100, Metabolic Activation: NONE, Method: STANDARD PLATE

## Oc1ccc(ON2P(Oc3ccc(O)cc3)N=P(Oc3ccc(O)cc3)(Oc3ccc(O)cc3)N(Oc3ccc(O)cc3)P2Oc2ccc(O)cc2)cc1 (stereo unspecified)
[1]
  mutagenic call: inactive; negative
Test System: AMES SALMONELLA TYPHIMURIUM, Strain/Indicator: TA98, Metabolic Activation: RAT, LIVER, S-9, AROCLOR 1254, Method: STANDARD PLATE
  mutagenic call: inactive; negative
[2]
  mutagenic call: inactive; negative
Test System: AMES SALMONELLA TYPHIMURIUM, Strain/Indicator: TA100, Metabolic Activation: RAT, LIVER, S-9, AROCLOR 1254, Method: STANDARD PLATE
  mutagenic call: inactive; negative

## O=C1c2c(ccc3ccccc23)-c2ccc3ccccc3c21
[1]
  mutagenic call: inactive; negative
[2]
  mutagenic call: inactive; negative

## O[C@H]1[C@@H]2O[C@@H]2c2c(ccc3ccc4ccccc4c23)[C@@H]1O
Test System: E. COLI, Strain/Indicator: CL101P, Metabolic Activation: NONE, Method: PREINCUBATION
  mutagenic call: active; positive
Test System: E. COLI, Strain/Indicator: CL102P, Metabolic Activation: NONE, Method: PREINCUBATION
  mutagenic call: active; positive
Test System: E. COLI, Strain/Indicator: CL103P, Metabolic Activation: NONE, Method: PREINCUBATION
  mutagenic call: active; positive
Test System: E. COLI, Strain/Indicator: CL104P, Metabolic Activation: NONE, Method: PREINCUBATION
  mutagenic call: active; positive
Test System: E. COLI, Strain/Indicator: CL105P, Metabolic Activation: NONE, Method: PREINCUBATION
  mutagenic call: active; positive
Test System: E. COLI, Strain/Indicator: CL106P, Metabolic Activation: NONE, Method: PREINCUBATION
  mutagenic call: active; positive

## IC(I)I
End Point: IN VITRO CHROMOSOMAL ABERRATIONS, Test System: SYRIAN HAMSTER EMBRYO (SHE) CELLS, Metabolic Activation: NONE
  mutagenic call: inactive; negative; toxicity at 160 and 240 um
End Point: IN VITRO CHROMOSOMAL ABERRATIONS, Test System: SYRIAN HAMSTER EMBRYO (SHE) CELLS, Metabolic Activation: RAT, LIVER, S-9
  mutagenic call: inactive; negative
End Point: In vitro chromosomal aberrations, Test System: D824 human dental pulp cells, Metabolic Activation: None
  mutagenic call: active; positive (structural changes and ploidy)

## O=C(O)C1=NN(c2ccc(S(=O)(=O)O)cc2)C(=O)C1N=Nc1ccc(S(=O)(=O)O)cc1 (stereo unspecified)
[1]
  mutagenic call: inactive; negative
Test System: AMES SALMONELLA TYPHIMURIUM, Strain/Indicator: TA98, Metabolic Activation: RAT LIVER S-9, AROCLOR 1254, Method: STANDARD PLATE
  mutagenic call: inactive; negative
[2]
  mutagenic call: inactive; negative
Test System: AMES SALMONELLA TYPHIMURIUM, Strain/Indicator: TA100, Metabolic Activation: RAT LIVER S-9, AROCLOR 1254, Method: STANDARD PLATE
  mutagenic call: inactive; negative
Test System: Mouse lymphoma, Strain/Indicator: L5178Y (tk+/tk-), Metabolic Activation: None, Method: Suspension/plate
  mutagenic call: inactive; negative
Test System: Mouse lymphoma, Strain/Indicator: L5178Y (tk+/tk-), Metabolic Activation: Rat, Liver, S-9, Aroclor 1254, Method: Suspension/plate
  mutagenic call: inactive; negative
